Reference: patent publication EP0321849A2, “Method for the enzymatic hydrolysis of alpha-aminoadipinyl monoamino compounds” (HOECHST AKTIENGESELLSCHAFT, priority 1987, dated 1989)

Legend:
[1] = molecular target: T1, γ-GTP (Bacillus subtilis, UniProt P54422); assay: Inhibition of γ-GTP by inhibitors (irreversible / reversible); type: biochemical; parameters: Das Enzym kommt in Mikroorganismen periplasmatisch und extrazellulär vor; endogenous in cells; host or cells: Bacteria cultured in nutrient medium (genera Pseudomonas, Proteus, Arthrobacter, Bacillus); preferred Bac. subtilis IFO 3025; conditions: in the presence of the substance; kind of inhibition (irreversible or reversible)
[2] = molecular target: T1, γ-GTP; assay: Enzymatic hydrolysis of α-aminoadipinyl cephalosporins by γ-GTP enzyme concentrate (preparative conversion); type: biochemical, Bac. subtilis IFO 3025; parameters: Das so gewonnene Kulturfiltrat enthält 1350 U γ-GTP-Aktivität; endogenous in cells; host or cells: Bacillus subtilis IFO 3025 (natural producer); Culture filtrate, ammonium sulfate precipitation, DEAE-cellulose
Procedure: Analog Beispiel 1 wird eine Vorkultur mit Bac. subtilis IFO 3025 angezogen. 50 ml dieser Kultur dienen als Inokulum für 2 l Hauptkulturlösung in einem 5 l-Fermenter. Die Anzucht des Stammes erfolgt bei 34°C und einem Sauerstoffpartialdruck von 70 %. Die Bildung der γ-GTP wird photometrisch verfolgt und die Kultur bei maximalem Enzymtiter abgeerntet. Unter den gegebenen Bedingungen wird ein γ-GTP-Titer von 150 mU/ml Kulturlösung erreicht.
9 l Kulturlösung werden mittels Cross-Flow-Filtration (Ausschlußgrenze 300 000 Dalton) in Kulturfiltrat und Zellmasse getrennt. Das so gewonnene Kulturfiltrat enthält 1350 U γ-GTP-Aktivität.
Durch Zugabe von Ammoniumsulfat ad 70 % d. S. wird das Enzym gefällt und in einem 1/10 des Volumens wieder aufgenommen. Nach Dialyse gegen 20 mM Tris, pH 8,0, wird über eine DEAE-Cellulose Säule (DE 52, Whatman) das Enzym weiter gereinigt. Die aktiven Eluate werden vereinigt und konzentriert. Ein so gewonnenes γ-GTP-Präparat (mit ca. 25 U γ-GTP/ml) wird für die Umsetzungen verwendet.
Für eine präparative Umsetzung von Desacetyl-CPC wird folgender Ansatz gewählt: 100 µl Enzymkonzentrat, hergestellt nach Beispiel 3, und 100 µl 40 mM Desacetyl-CPC, gelöst in 20 mM Kaliumphosphatpuffer, pH 7,3 werden bei einer Temperatur von 33°C inkubiert. […]

[3] = substrate: N[C@@H](CCC(=O)Nc1ccc([N+](=O)[O-])cc1)C(=O)O; assay: Km determination of γ-GTP with L-γ-Glutamylparanitroanilid as substrate; type: biochemical; conditions: other: substrate of γ-GTP, pH 8, 37.0 °C

With CC(=O)OCC1=C(C(=O)O)N2C(=O)[C@@H](N)[C@H]2SC1 [7-Aminocephalosporansäure] the “Hemmung der γ-GTP” value [1] was “reversible Hemmung”.

CC(=O)OCC1=C(C(=O)O)N2C(=O)[C@@H](NC(=O)CCC[C@@H](N)C(=O)O)[C@H]2SC1 [CPC, Cephalosporin C] gave a 7-Aminocephalosporansäure released ([2]; incubation conditions as in Beispiel 4 (pH 7,3, 33°C)) of 3%.

For [Hg] [Quecksilber], the “Hemmung der γ-GTP” value [1] was “reversible Hemmung”.

NC(=O)CI [Jodacetamid] was tested, and the “Hemmung der γ-GTP” value [1] was “irreversibel gehemmt”.

[N-]=[N+]=CC(=O)OC[C@H](N)C(=O)O [Azaserin] was tested, and the “Hemmung der γ-GTP” value [1] was “irreversibel gehemmt”.

N[C@H](CCCC(=O)N[C@@H]1C(=O)N2C(C(=O)O)=C(CO)CS[C@H]12)C(=O)O [Desacetyl-CPC] showed a Desacetyl-7-Aminocephalosporansäure formed ([2]; 100 µl enzyme concentrate + 100 µl 40 mM substrate in 20 mM potassium phosphate buffer pH 7,3, 33°C) of no more than 16%.

In the case of [Cu] [Kupfer], the “Hemmung der γ-GTP” value [1] is reported as “reversible Hemmung”.

B1: γ-Glutamyltranspeptidase (γ-GTP) (Bacillus subtilis subsp. subtilis str. 168) (protein)
chain 1: DEYKQVDVGKDGMVATAHPLASEIGADVLKKGGNAIDAAVAIQFALNVTEPMMSGIGGGGFMMVYDGKTKDTTIIDSRERAPAGATPDMFLDENGKAIPFSERVTKGTAVGVPGTLKGLEEALDKWGTRSMKQLITPSIKLAEKGFPIDSVLAEAISDYQEKLSRTAAKDVFLPNGEPLKEGDTLIQKDLAKTFKLIRSKGTDAFYKGKFAKTLSDTVQDFGGSMTEKDLENYDITIDEPIWGDYQGYQIATTPPPSSGGIFLLQMLKILDHFNLSQYDVRSWEKYQLLAETMHLSYADRASYAGDPEFVNVPLKGLLHPDYIKERQQLINLDQVNKKPKAGDPWKYQEGSANYKQVEQPKDKVEGQ
chain 2: TTHFTVADRWGNVVSYTTTIEQLFGTGIMVPDYGVILNNELTDFDAIPGGANEVQPNKRPLSSMTPTILFKDDKPVLTVGSPGGATIISSVLQTILYHIEYGMELKAAVEEPRIYTNSMSSYRYEDGVPKDVLSKLNGMGHKFGTSPVDIGNVQSISIDHENGTFKGVADSSRNGAAIGINLKRK
notes: Das Enzym kommt in Mikroorganismen periplasmatisch und extrazellulär vor; endogenous in cells; host or cells: Bacteria cultured in nutrient medium (genera Pseudomonas, Proteus, Arthrobacter, Bacillus); preferred Bac. subtilis IFO 3025
In the case of B1, the Km [3] is reported as 17,8 µM.
